Columns and labels:
FAAH [1] = target: T1, FAAH (Rattus norvegicus, UniProt P97612); assay: In vitro FAAH activity in rat brain membranes, 3H-AEA substrate, % of control; assay type: biochemical, Wistar rats; details: 100 nM test compound, low value = strong inhibitor
T1 construct: Frozen brains (without cerebellum) from Wistar rats were used; from tissue; host or cells: Wistar rat brain (without cerebellum), washed membrane pellets
T1 sequence (P97612 1-579): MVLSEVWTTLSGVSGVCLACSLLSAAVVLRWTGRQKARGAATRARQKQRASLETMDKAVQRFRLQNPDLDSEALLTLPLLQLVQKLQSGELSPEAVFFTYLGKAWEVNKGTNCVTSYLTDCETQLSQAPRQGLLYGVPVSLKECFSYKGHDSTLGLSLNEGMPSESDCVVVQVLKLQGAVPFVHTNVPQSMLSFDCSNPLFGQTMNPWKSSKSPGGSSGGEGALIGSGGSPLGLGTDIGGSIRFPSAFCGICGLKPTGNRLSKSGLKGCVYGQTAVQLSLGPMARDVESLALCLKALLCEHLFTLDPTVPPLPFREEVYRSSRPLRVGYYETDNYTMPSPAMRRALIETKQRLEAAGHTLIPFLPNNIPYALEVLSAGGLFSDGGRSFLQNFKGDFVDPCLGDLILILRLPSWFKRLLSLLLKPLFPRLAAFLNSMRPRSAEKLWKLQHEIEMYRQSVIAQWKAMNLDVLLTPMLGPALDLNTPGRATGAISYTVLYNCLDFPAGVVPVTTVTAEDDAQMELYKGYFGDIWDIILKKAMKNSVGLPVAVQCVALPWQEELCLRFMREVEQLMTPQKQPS
In short: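 FAAH activity measured as 3H-ethanolamine released from 2 μM [3H]AEA over 10 min by rat brain membrane preparation, after 15 min 37 °C preincubation with test compound at 10 or 0.1 μM. Charcoal-separated supernatant scintillation-counted; values expressed as % of control minus no-protein blank.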

FAAH [2] = target: T2, FAAH (Mus musculus, UniProt O08914); assay: In vivo FAAH inhibition after oral dosing, remaining activity in liver homogenate (LVh, peripheral tissue); design: species or system NMRI mice; details: liver homogenate, 3 mg/kg, 8 h
T2 construct: A fragment of liver, left lung lobe and brain without cerebellum were removed; from tissue; host or cells: male NMRI mice; brain (without cerebellum) and liver homogenates
T2 sequence (O08914 1-579): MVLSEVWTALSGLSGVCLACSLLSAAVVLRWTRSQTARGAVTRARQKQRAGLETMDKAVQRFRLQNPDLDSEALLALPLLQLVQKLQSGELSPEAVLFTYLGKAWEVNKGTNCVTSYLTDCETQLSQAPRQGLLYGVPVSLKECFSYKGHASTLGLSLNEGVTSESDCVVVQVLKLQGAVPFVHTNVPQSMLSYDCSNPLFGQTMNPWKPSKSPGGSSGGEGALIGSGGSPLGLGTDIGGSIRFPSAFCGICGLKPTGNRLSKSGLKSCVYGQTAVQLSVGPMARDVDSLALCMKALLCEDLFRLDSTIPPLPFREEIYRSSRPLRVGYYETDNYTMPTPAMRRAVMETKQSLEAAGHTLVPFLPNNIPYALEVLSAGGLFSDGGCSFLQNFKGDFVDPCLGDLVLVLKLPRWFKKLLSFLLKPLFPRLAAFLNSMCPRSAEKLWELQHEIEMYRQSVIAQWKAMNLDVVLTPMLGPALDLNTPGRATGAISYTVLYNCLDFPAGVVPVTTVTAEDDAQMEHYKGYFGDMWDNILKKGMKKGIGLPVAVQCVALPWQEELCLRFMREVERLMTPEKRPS
In short: (§1)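 Remaining FAAH activity is given as % of vehicle-treated controls after blank subtraction, measured by radiolabelled AEA hydrolysis (2 μM AEA, 5 nM 3H-AEA, 37 °C) in brain (10 min) or liver (7 min) homogenates. These came from fasted male NMRI mice dosed orally at 30 or 3 mg/kg.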

FAAH [3] = target: T2, FAAH; assay: In vivo FAAH inhibition after oral dosing, remaining activity in brain homogenate (BRh, central nervous tissue); design: species or system NMRI mice; details: brain homogenate, 3 mg/kg, 8 h
In short: as §1

| SMILES | In Vitro FAAH activity, 100 nM (FAAH [1]) | In Vivo LVh 3 mg/kg 8 h, remaining FAAH activity (FAAH [2]) | In Vivo BRh 3 mg/kg 8 h, remaining FAAH activity (FAAH [3]) |
| --- | --- | --- | --- |
| CN(CCOCc1ccccc1)C(=O)n1nnc2ccccc21 [Compound 156, N-(2-(benzyloxy)ethyl)-N-methyl-1H-benzo[d][1,2,3]triazole-1-carboxamide] | 0.1 % of control | 24.4 % of control | 67.2 % of control |
| COc1ccc(OCCN(C)C(=O)n2nnc3ccccc32)cc1 [Compound 157, N-(2-(4-methoxyphenoxy)ethyl)-N-methyl-1H-benzo[d][1,2,3]triazole-1-carboxamide] | 0 % of control | 3.5 % of control | 5.2 % of control |
| Cl.O=C(N1CCN(Cc2ccccc2)CC1)n1cnc(-c2cccs2)n1 [Compound 158, (4-benzylpiperazin-1-yl)(3-(thiophen-2-yl)-1H-1,2,4-triazol-1-yl)methanone hydrochloride] | 0.3 % of control | 85.6 % of control | 92 % of control |
| CC1(C)COCN1C(=O)n1nnc2ccc(Br)cc21 [Compound 162, (6-bromo-1H-benzo[d][1,2,3]triazol-1-yl)(4,4-dimethyloxazolidin-3-yl)methanone] | 0 % of control | 3.1 % of control | 0.9 % of control |
| CC1(C)COCN1C(=O)n1nnc2ccc(-c3cccc(C(N)=O)c3)cc21 [Compound 163, 3-(3-(4,4-dimethyloxazolidine-3-carbonyl)-3H-benzo[d][1,2,3]triazol-5-yl)benzamide] | 0.6 % of control | 2.4 % of control | 6.3 % of control |
| O=C(N1CCS(=O)(=O)C1)n1nnc2ccccc21 [Compound 167, 1-[(1,1-dioxido-1,3-thiazolidin-3-yl)carbonyl]-1H-benzotriazole] | 96.2 % of control | 104 % of control | 99.9 % of control |
| O=C(N1CCN(c2ccccc2)CC1)n1cnc(Cc2ccccc2)n1 [Compound 182, (3-benzyl-1H-1,2,4-triazol-1-yl)(4-phenylpiperazin-1-yl)methanone] | 0.6 % of control | 111 % of control | 90.6 % of control |
| CC1(C)COCN1C(=O)n1cnc(-c2ccc(F)cc2F)n1 [Compound 183, (3-(2,4-difluorophenyl)-1H-1,2,4-triazol-1-yl)(4,4-dimethyloxazolidin-3-yl)methanone] | 102 % of control | 78.1 % of control | 92.4 % of control |
| CC1(C)COCN1C(=O)n1cnc(-c2ccc(Cl)cc2)c1 [Compound 186, (4-(4-chlorophenyl)-1H-imidazol-1-yl)(4,4-dimethyloxazolidin-3-yl)methanone] | 96.5 % of control | 37.7 % of control | 78.7 % of control |
| CC1(C)COCN1C(=O)n1cnc(-c2ccc(Oc3ccc(C(N)=O)cc3)cc2)n1 [Compound 187, 4-(4-(1-(4,4-dimethyloxazolidine-3-carbonyl)-1H-1,2,4-triazol-3-yl)phenoxy)benzamide] | 92.8 % of control | 108.6 % of control | 85.6 % of control |
| COc1ccc(-c2ncn(C(=O)N3COCC3(C)C)n2)cc1 [Compound 188, (4,4-dimethyloxazolidin-3-yl)(3-(4-methoxyphenyl)-1H-1,2,4-triazol-1-yl)methanone] | 103.3 % of control | 89 % of control | 78.7 % of control |
| CC1(C)COCN1C(=O)n1cnc(-c2ccc(Cl)cc2)n1 [Compound 189, (3-(4-chlorophenyl)-1H-1,2,4-triazol-1-yl)(4,4-dimethyloxazolidin-3-yl)methanone] | 98.5 % of control | 87.6 % of control | 105.9 % of control |
| CN(Cc1ccccc1)C(=O)n1cnc(-c2cccc3ccccc23)n1 [Compound 191, N-benzyl-N-methyl-3-(naphthalen-1-yl)-1H-1,2,4-triazole-1-carboxamide] | 21 % of control | 20.8 % of control | 60 % of control |
| C[C@@H](c1ccccc1)N(C)C(=O)n1nnc2ccccc21 [Compound 195, (S)—N-methyl-N-(1-phenylethyl)-1H-benzo[d][1,2,3]triazole-1-carboxamide] | 15.7 % of control | 5.7 % of control | 9.1 % of control |
| O=C(N1CCN(c2ccccc2)CC1)n1cnc(-c2cccc(-c3ccccc3)c2)c1 [Compound 196, (4-(biphenyl-3-yl)-1H-imidazol-1-yl)(4-phenylpiperazin-1-yl)methanone] | 2.5 % of control | 78.3 % of control | 88.1 % of control |
| CN(C(=O)n1cnc(-c2ccc(N)cc2)c1)c1ccccc1 [Compound 199, 4-(4-aminophenyl)-N-methyl-N-phenyl-1H-imidazole-1-carboxamide] | 89 % of control | 19.7 % of control | 45.9 % of control |
| CN(C(=O)n1cnc(-c2ccc(OCCN3CCNCC3)cc2)c1)c1ccccc1.Cl.Cl [Compound 203, N-methyl-N-phenyl-4-(4-(2-(piperazin-1-yl)ethoxy)phenyl)-1H-imidazole-1-carboxamide dihydrochloride] | 93.5 % of control | 64.3 % of control | 101.8 % of control |
| NC(=O)c1ccc(Oc2cccc(-c3ncn(C(=O)N4CCN(c5ccccc5)CC4)n3)c2)cc1 [Compound 208, 4-(3-(1-(4-phenylpiperazine-1-carbonyl)-1H-1,2,4-triazol-3-yl)phenoxy)benzamide] | 0.2 % of control | 96.7 % of control | 97.2 % of control |
| CC1(C)COCN1C(=O)n1cnc(-c2cccc(Oc3ccc(C(N)=O)cc3)c2)n1 [Compound 209, 4-(3-(1-(4,4-dimethyloxazolidine-3-carbonyl)-1H-1,2,4-triazol-3-yl)phenoxy)benzamide] | 101.5 % of control | 70.1 % of control | 99.8 % of control |
| CC1(C)COCN1C(=O)n1cnc(-c2cccs2)n1 [Compound 213, (4,4-dimethyloxazolidin-3-yl)(3-(thiophen-2-yl)-1H-1,2,4-triazol-1-yl)methanone] | 105.6 % of control | 6.9 % of control | 53.7 % of control |
